Measured values from patent US8884011B2, “Nucleotide analogues as precursor molecules for antivirals” (Centre National de la Recherche Scientifique-CNRS, priority 2006, dated 2014).
Read-outs that look alike come from different tables or passages of the source.

How the values were obtained:
[1] = system: Parainfluenza-3-virus; assay: Virus panel, CPE assay: Parainfluenza-3-virus in Vero cells; assay type: cell-based; settings: read-out: in vitro antiviral activity (EC50), none up to
[2] = system: HBV; assay: Anti-HBV test in infected HepAD38 cells (intracellular viral DNA by Q-PCR); assay type: cell-based; settings: for EC50: Hepatitis B virus, 144 h, infected HepAD38 cells, 50% reduction of viral DNA, day 6 post-induction
Experimental: These are hepatoma cells that have been stably transfected with a cDNA copy of the pregenomic RNA of wild-type virus. Withdrawal of tetracycline from the culture medium results in the initiation of viral replication. This offers the advantage, in contrast to the Hep G2.2.15 cell lines commonly used, that there is no, or very limited background viral DNA synthesis. Cells were cultured at 37° C. in a humidified 5% CO2/air atmosphere in seeding medium, DMEM/Ham's F12 (50/50) supplemented with 10% (v/v) heat-inactivated fetal calf serum, 100 IU/ml penicillin, 50 μg/ml streptomycin, 100 Ξg/ml kanamycin, 400 μg/ml G418, and 0.3 μg/ml tetracycline. […] After 2-3 days the cultures were induced for viral production by washing with prewarmed PBS and were fed with […] assay medium (seeding medium without tetracycline and G418) with or without the antiviral compounds. Medium was changed after 3 days. The antiviral effect was quantified by measuring levels of intracellular viral DNA at day 6 post-induction, by a real time quantitative PCR (Q-PCR) method. Total cellular DNA was extracted from the cells by means of a commercial kit. […] The reaction was analyzed using a SDS 7000. A plasmid containing the full length insert of the HBV genome was used to prepare the standard curve. The amount of viral DNA produced in treated cultures was expressed as a percentage of the mock treated samples. […] The cytostatic effect of the various compounds was assessed employing the parent hepatoma cell line HepG2. The effect of the compounds on exponentially growing HepG2 cells was evaluated by means of the MTS method. Briefly, cells were seeded at a density of 3000/well (96 well plate) and were allowed to proliferate for 3 days in the absence or presence of compounds after which the optical density was measured with a 96-well plate reader and cell density was determined.

[3] = Cytostatic effect on parent hepatoma cell line HepG2 (MTS method); settings: human
[4] = system: influenza B; assay: Virus panel: influenza B in MDCK cells; assay type: cell-based; settings: read-out: in vitro antiviral activity (EC50), none up to
Source text: (§1) influenza A (H1N1), influenza A (H3N2), influenza B, in MDCK cells;

[5] = system: influenza A (H1N1); assay: Virus panel: influenza A (H1N1) in MDCK cells; assay type: cell-based; settings: read-out: in vitro antiviral activity (EC50), none up to
Source text: as §1

[6] = system: Sindbis virus; assay: Virus panel, CPE assay: Sindbis virus in Vero cells; assay type: cell-based; settings: read-out: in vitro antiviral activity (EC50), none up to
[7] = system: influenza A (H3N2); assay: Virus panel: influenza A (H3N2) in MDCK cells; assay type: cell-based; settings: read-out: in vitro antiviral activity (EC50), none up to
Source text: as §1

[8] = Stability in total cell extracts (CEM-SS), HPLC; assay type: in vitro ADME; settings: 37° C., 0.1 mM
Experimental: (§2) Media and preparation of cell extracts. Culture medium was composed by RPMI 1640 containing 10% (v/v) heat-inactivated fetal calf serum and stored at −80° C. CEM-SS cell extracts were prepared according to a published procedure (Puech, F. et al. Antiv. Res. 1993, 22, 155-174). Exponentially growing CEM-SS cells were recovered by centrifugation (500 g, 4° C., 4 min), washed twice with PBS and resuspended in 10 mM Tris-HCl, 140 mM KCl (pH 7.4), at the concentration of 30×10^6 cells/mL. Cells were lyzed by ultrasonic treatment and cellular debris were removed by centrifugation (10000 g, 4° C., 20 min). The supernatant containing soluble proteins (3 mg/mL) was stored at −80° C.
Kinetic data and decomposition pathways for compounds 6 and 11 were studied at 37° C. […]
All the compounds were analyzed under the same conditions. […] The product of degradation from parent compound was determined by comparison with corresponding references.

[9] = system: HIV-2 (ROD); assay: Anti-HIV test in CEM cell cultures, syncytium formation, HIV-2 (ROD); assay type: cell-based; settings: Human immunodeficiency virus 2, CCRF-CEM, read-out: EC50 (μM) HIV-2
[10] = system: HIV-1-LAI; assay: Anti-HIV test in CMSP cultures infected by HIV-1-LAI (RT activity in supernatants); assay type: cell-based; settings: for EC50: Human immunodeficiency virus 1, 168 h, read-out: EC50 (μM) HIV-1 (LAI)
[11] = Cytotoxicity in CEM cell cultures (cell density); assay type: cell-based; settings: human, 50% reduction in cell density, read-out: TC50 (the source's name)
[12] = system: respiratory syncytial virus; assay: Virus panel, CPE assay: respiratory syncytial virus in Hela cells; assay type: cell-based; settings: human respiratory syncytial virus, read-out: in vitro antiviral activity (EC50), none up to
[13] = system: Reovirus-1; assay: Virus panel, CPE assay: Reovirus-1 in Vero cells; assay type: cell-based; settings: Reovirus-1, Vero cells; read-out: in vitro antiviral activity (EC50), none up to
[14] = system: vesicular stomatitis virus; assay: microbe, parasite or virus in culture; assay type: cell-based; settings: HEL, read-out: in vitro antiviral activity (EC50), none up to
[15] = system: HIV-1 (IIIB); assay: Anti-HIV test in CEM cell cultures, syncytium formation, HIV-1 (IIIB); assay type: cell-based; settings: Human immunodeficiency virus 1, IIIB, CCRF-CEM, read-out: EC50 (μM) HIV-1
Experimental: Briefly, CEM cells (4.5×10^5 cells per ml) were suspended in fresh culture medium and infected with HIV-1 at 100 CCID50 per ml of cell suspension. Then, 100 μl of the infected cell suspension were transferred to microplate wells, mixed with 100 μl of the appropriate dilutions of the test compounds, and further incubated at 37° C. After 4 to 5 days, giant cell formation was recorded microscopically in the CEM cell cultures.

[16] = system: CMSP (uninfected cells); assay: Cytotoxicity by MTT test in cultures of uninfected CMSP; settings: text statement to Table VII
[17] = as above; settings: human
[18] = system: Coxsackie B4; assay: Virus panel, CPE assay: Coxsackie B4 virus in Hela and Vero cells; assay type: cell-based; settings: Enterovirus B, read-out: in vitro antiviral activity (EC50), none up to
[19] = Stability in complete medium (RPMI 1640 containing 10% heat-inactivated fetal calf serum), HPLC; assay type: in vitro ADME
Experimental: as §2
Kinetic data and decomposition pathways for compounds 6 and 11 were studied at 37° C. (a) in complete medium (RPMI 1640 containing 10% heat-inactivated fetal calf serum (b) in total cells extracts (CEM-SS). For each kinetic study, the compound solution was diluted with a freshly thawed aliquot of the considered medium to obtain an initial concentration of 0.1 mM. The mixture was incubated at 37° C. and for the required time, an aliquot (10% solution) was taken and immediately frozen at −80° C. for further HPLC analysis. The crude sample was injected into the precolumn and eluted with buffer A during 5 min. Then, the switching valve for connecting the precolumn to the column was activated, and a linear gradient from buffer A to buffer B, increasing buffer B from 0% at 0 min to 20% at 40 min is applied. The retention times were 6, 26 min; 11, 29.5 min, PMEA, 24.3 min and (R)-PMPA, 27.8 min.
All the compounds were analyzed under the same conditions. The amount of remaining parent compound at each time point was used to determine the half-life of the compound. The product of degradation from parent compound was determined by comparison with corresponding references.

[20] = system: Punta Toro virus; assay: Virus panel, CPE assay: Punta Toro virus in Vero cells; assay type: cell-based; settings: read-out: in vitro antiviral activity (EC50), none up to
[21] = system: HBV; assay: Anti-HBV test in infected Huh7 cells; assay type: cell-based; settings: Hepatitis B virus
[22] = target: wild-type RT of HIV-1 (Human immunodeficiency virus type 1 group M subtype B, UniProt P04585); assay: biochemical; assay type: biochemical; settings: for Selectivity = (kpol/Kd) natural nucleotide/(kpol/Kd) nucleotide analogue (discrimination): versus dATP
[23] = target: K65R mutant RT of HIV-1 (Human immunodeficiency virus type 1 group M subtype B, UniProt P04585, K652R); assay: biochemical; assay type: biochemical; settings: for kpol / kpol/Kd: K65R mutant RT
[24] = system: K65R mutant RT of HIV-1; assay: biochemical; assay type: biochemical
[25] = affinities of the RT for the analogues (Kd), wild-type RT, unit inferred

C[C@H](Cn1cnc2c(N)ncnc21)OCP(=O)(O)S (stereo partly drawn) [Compound 11, (R)-9-[2-(thiophosphonomethoxy)propyl]adenine]
EC50 [1]: > 200 µM
EC50 [2]: 2.26 µM
CC50 at 3 days [3]: > 174 µM
EC50 [4]: > 200 µM
EC50 [5]: > 200 µM
EC50 [6]: > 200 µM
EC50 [7]: > 200 µM
t1/2 cell extracts [8]: stable^c
EC50 [9]: 8.6 µM
EC50 [10]: 1.6 µM
CC50 [11]: > 165 µM
EC50 [12]: > 200 µM
EC50 [13]: > 200 µM
EC50 [14]: > 200 µM
EC50 [15]: 11.1 µM
not cytotoxic (highest concentration tested) [16]: > 200 µM
CC50 at 7 days [17]: > 100 µM
EC50 [18]: > 200 µM
half-life at 0.1 mM ([19]; bovine, serum, 37° C., initial concentration 0.1 mM, read-out: t1/2 complete medium): > 24 h
product intact ([19]; complete medium, 37° C., degradation into the phosphonate): ^b: product 77% intact (degradation into PMPA)
degradation ([19]; culture medium): 20%
EC50 [20]: > 200 µM
EC50 ([21]; Huh-7, read-out: EC50 (μM) HBV): 5 µM

Nc1ncnc2c1ncn2CCOCP(O)(=S)OP(=O)(O)OP(=O)(O)O (stereo not drawn) [Compound 12, 9-[2-(diphosphorylthiophosphonomethoxy)ethyl]adenine]
Kd [22, 25]: 1.2 µM
incorporation velocity, times lower than that of natural nucleotide dATP ([22]; wild-type RT): 90 times
kpol ([22]; wild-type RT): 0.55 s⁻¹
kpol/Kd ([22]; wild-type RT): 0.5
Selectivity = (kpol/Kd) natural nucleotide/(kpol/Kd) nucleotide analogue (discrimination) ([22]; wild-type RT): 14.5
Kd [23]: 0.7 µM
kpol [23]: 0.03 s⁻¹
kpol/Kd [23]: 0.04
reduction in the incorporation velocity of the nucleotide (factor) [24]: 18

C[C@H](Cn1cnc2c(N)ncnc21)OCP(O)(=S)OP(=O)(O)OP(=O)(O)O (stereo partly drawn) [Compound 13, (R)-9-[2-(pyrophosphoroxythiophosphonomethoxy)propyl]adenine]
incorporation velocity, times lower than that of natural nucleotide dATP [22]: 90 times
kpol [22]: 0.58 s⁻¹
kpol/Kd [22]: 0.11
Kd ([22]; Kd (μM), wild-type RT): 5.2 µM
Kd [22, 25]: 5.5 µM
Selectivity = (kpol/Kd) natural nucleotide/(kpol/Kd) nucleotide analogue (discrimination) ([22]; wild-type RT): 59.8
Kd [23]: 2.7 µM
kpol [23]: 0.077 s⁻¹
kpol/Kd [23]: 0.03

Nc1ncnc2c1ncn2CCOCP(=O)(O)O [PMEA, 9-(2-(phosphonomethoxy)ethyl)adenine]
SI selectivity index (TC50/EC50) ([2]; HBV, HepAD38 cells): >23
EC50 [2]: 8.8 µM
CC50 at 3 days [3]: > 200 µM
IT (selectivity index, TC50/EC50) ([10]; HIV-1 (LAI), CMSP): >5
EC50 ([10]; CMSP cultures, 7 days, RT activity in supernatants): 1.9 µM
CC50 at 7 days [17]: > 19 µM
EC50 ([21]; Huh-7, infected Huh7 cells, 50% reduction of viral DNA, read-out: EC50 (μM) HBV): 6 µM
